Experimental data: patent publication US20260207578A1, “COMPOUND BASED ON SULFUR/OXYGEN SUBSTITUTED GLUTARIMIDE-BASED ISOINDOLINONE SKELETON AND USE THEREOF” (Gluetacs Therapeutics (Shanghai) Co., LTD., priority 2022, published 2026)

How the values were obtained:
[1] = target: T1, IKZF2 (Homo sapiens, UniProt Q96SW2+Q9UKS7); assay: Western-blot assay, substrate protein in hPBMCs; assay type: cell-based; conditions: hPBMC cells, 24 hours, tested at 50 nM and 500 nM, table does not say which
T1 construct: endogenous in cells; host or cells: human PBMCs (Milecell Biotechnologies)
Procedure, shortened: (§1)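 Protein levels read by Western blot of lysates from human PBMCs (1×10^6 cells/mL) treated 24 h. Percent remaining is target band over loading-control band, normalised to DMSO-treated cells; DC50 is the concentration halving DMSO-control band intensity, estimated by curve fit.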

[2] = target: T2, GSPT1 (Homo sapiens, UniProt P15170+Q96SW2); assay: Western-blot assay, substrate protein in hPBMCs; assay type: cell-based; conditions: hPBMC cells, 24 hours, tested at 50 nM and 500 nM, table does not say which
T2 construct: endogenous in cells; host or cells: human PBMCs (Milecell Biotechnologies)
T2 sequence (P15170 whole entry): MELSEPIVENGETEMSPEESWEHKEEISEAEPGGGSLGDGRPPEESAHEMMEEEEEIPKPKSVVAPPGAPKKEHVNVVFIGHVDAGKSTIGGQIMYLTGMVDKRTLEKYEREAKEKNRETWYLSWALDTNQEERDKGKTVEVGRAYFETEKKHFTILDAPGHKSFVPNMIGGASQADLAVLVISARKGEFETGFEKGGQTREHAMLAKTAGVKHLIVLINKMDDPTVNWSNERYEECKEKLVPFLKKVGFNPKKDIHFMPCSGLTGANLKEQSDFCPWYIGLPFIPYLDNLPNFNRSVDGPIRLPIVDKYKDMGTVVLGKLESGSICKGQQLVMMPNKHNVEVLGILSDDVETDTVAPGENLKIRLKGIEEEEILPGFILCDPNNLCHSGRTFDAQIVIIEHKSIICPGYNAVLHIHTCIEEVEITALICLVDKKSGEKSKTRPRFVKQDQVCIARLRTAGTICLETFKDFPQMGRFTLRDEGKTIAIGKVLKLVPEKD
T2 sequence (Q96SW2 whole entry): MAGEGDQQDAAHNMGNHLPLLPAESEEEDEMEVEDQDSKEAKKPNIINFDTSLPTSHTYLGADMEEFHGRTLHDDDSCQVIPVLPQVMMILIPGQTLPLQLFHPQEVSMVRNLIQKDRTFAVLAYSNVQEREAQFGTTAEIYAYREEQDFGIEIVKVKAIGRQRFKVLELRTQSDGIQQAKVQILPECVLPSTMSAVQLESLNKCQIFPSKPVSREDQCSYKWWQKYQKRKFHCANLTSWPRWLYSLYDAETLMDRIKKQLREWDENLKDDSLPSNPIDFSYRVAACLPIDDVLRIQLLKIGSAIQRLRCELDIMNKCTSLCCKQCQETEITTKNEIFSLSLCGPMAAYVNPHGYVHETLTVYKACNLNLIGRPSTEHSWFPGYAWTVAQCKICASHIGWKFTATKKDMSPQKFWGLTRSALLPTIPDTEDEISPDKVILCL
T2 sequence (Q16531 whole entry partner): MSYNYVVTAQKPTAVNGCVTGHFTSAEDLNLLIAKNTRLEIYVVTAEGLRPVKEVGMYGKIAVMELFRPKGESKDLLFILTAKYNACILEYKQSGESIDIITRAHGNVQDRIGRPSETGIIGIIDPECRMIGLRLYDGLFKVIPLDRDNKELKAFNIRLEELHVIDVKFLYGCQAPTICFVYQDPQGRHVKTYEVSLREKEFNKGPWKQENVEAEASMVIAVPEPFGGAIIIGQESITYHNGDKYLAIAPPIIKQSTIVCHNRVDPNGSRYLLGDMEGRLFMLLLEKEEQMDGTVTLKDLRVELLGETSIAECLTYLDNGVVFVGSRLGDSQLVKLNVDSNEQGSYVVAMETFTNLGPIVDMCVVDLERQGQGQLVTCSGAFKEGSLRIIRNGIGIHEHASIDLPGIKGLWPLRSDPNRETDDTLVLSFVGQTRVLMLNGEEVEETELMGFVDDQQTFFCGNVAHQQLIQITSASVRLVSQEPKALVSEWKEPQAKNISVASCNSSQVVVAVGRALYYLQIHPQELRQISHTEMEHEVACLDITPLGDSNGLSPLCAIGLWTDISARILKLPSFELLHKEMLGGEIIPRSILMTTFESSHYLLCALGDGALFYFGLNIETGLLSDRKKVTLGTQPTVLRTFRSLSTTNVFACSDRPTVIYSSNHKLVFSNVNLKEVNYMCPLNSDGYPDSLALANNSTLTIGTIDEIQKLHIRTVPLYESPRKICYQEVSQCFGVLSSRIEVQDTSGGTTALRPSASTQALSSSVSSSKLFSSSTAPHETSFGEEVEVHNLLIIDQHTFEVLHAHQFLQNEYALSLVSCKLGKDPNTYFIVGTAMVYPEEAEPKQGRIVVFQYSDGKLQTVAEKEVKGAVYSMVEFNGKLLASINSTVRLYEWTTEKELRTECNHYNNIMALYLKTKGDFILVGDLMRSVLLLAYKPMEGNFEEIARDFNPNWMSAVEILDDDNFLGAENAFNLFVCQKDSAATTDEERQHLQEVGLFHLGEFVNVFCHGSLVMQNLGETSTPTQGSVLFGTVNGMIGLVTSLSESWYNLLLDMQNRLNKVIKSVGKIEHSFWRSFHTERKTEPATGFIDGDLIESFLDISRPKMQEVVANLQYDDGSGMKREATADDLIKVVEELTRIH
Procedure, shortened: as §1

[3] = target: T3, CK1α (Homo sapiens, UniProt P48729+Q96SW2); assay: Western-blot assay, substrate protein in hPBMCs; assay type: cell-based; conditions: hPBMC cells, 24 hours, tested at 50 nM and 500 nM, table does not say which
T3 construct: endogenous in cells; host or cells: human PBMCs (Milecell Biotechnologies)
T3 sequence (P48729 whole entry): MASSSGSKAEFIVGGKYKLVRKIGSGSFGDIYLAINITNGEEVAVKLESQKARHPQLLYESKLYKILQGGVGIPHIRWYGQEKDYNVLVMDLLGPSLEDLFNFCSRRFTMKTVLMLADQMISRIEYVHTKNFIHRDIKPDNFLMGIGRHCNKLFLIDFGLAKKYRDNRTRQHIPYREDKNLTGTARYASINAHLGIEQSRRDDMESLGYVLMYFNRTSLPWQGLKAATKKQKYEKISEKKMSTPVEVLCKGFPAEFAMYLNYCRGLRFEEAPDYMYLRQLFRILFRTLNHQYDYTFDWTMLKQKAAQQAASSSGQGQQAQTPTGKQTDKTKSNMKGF
T3 sequence (Q96SW2 whole entry): as the sequence (Q96SW2 whole entry) above
T3 sequence (Q16531 whole entry partner): as the sequence (Q16531 whole entry partner) above
Procedure, shortened: as §1

[4] = test system: MM.1S; assay: Half inhibitory concentration (IC50) against tumor cells, Cell Counting Kit-8; assay type: cell-based; conditions: Homo sapiens, MM1.S, CCK-8, 96 h treatment, read-out: inhibitory activity (IC50, nM) against tumor cells proliferation
[5] = test system: MV-4-11; assay: as above; assay type: cell-based; conditions: Homo sapiens, MV4-11, CCK-8, 96 h treatment, read-out: inhibitory activity (IC50, nM) against tumor cells proliferation
[6] = test system: CAL-62; assay: as above; assay type: cell-based; conditions: Homo sapiens, CCK-8, 96 h treatment, read-out: inhibitory activity (IC50, nM) against tumor cells proliferation
[7] = test system: Daudi; assay: as above; assay type: cell-based; conditions: Homo sapiens, CCK-8, 96 h treatment, read-out: inhibitory activity (IC50, nM) against tumor cells proliferation
[8] = test system: THP-1; assay: as above; assay type: cell-based; conditions: Homo sapiens, CCK-8, 96 h treatment, read-out: inhibitory activity (IC50, nM) against tumor cells proliferation
[9] = test system: JEKO-1; assay: as above; assay type: cell-based; conditions: Homo sapiens, CCK-8, 96 h treatment, read-out: inhibitory activity (IC50, nM) against tumor cells proliferation
[10] = test system: MDA-MB-231; assay: as above; assay type: cell-based; conditions: Homo sapiens, CCK-8, 96 h treatment, read-out: inhibitory activity (IC50, nM) against tumor cells proliferation
[11] = test system: CCRF-CEM; assay: as above; assay type: cell-based; conditions: Homo sapiens, CCK-8, 96 h treatment, read-out: inhibitory activity (IC50, nM) against tumor cells proliferation
[12] = test system: MM.1R; assay: as above; assay type: cell-based; conditions: Homo sapiens, CCK-8, 96 h treatment, read-out: inhibitory activity (IC50, nM) against tumor cells proliferation
[13] = test system: Kasumi-1; assay: as above; assay type: cell-based; conditions: Homo sapiens, CCK-8, 96 h treatment, read-out: inhibitory activity (IC50, nM) against tumor cells proliferation
[14] = target: T4, IKZF3 (Homo sapiens, UniProt Q96SW2+Q9UKT9); assay: Western-blot assay, substrate protein in hPBMCs; assay type: cell-based; conditions: hPBMC cells, 24 hours, tested at 50 nM and 500 nM, table does not say which
T4 construct: endogenous in cells; host or cells: human PBMCs (Milecell Biotechnologies)
T4 sequence (Q9UKT9 whole entry): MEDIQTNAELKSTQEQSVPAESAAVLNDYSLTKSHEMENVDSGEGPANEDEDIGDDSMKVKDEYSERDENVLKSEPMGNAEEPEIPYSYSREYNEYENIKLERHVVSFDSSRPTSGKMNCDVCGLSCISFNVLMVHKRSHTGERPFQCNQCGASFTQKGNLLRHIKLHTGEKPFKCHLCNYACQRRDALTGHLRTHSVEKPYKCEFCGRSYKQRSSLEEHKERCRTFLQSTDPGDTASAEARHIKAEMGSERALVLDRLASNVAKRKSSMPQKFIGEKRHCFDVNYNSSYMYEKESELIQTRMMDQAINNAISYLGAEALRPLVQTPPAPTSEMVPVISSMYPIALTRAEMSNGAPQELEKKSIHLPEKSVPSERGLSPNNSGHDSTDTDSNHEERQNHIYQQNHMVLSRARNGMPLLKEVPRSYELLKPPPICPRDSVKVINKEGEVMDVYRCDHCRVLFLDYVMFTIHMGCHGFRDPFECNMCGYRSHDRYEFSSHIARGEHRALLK
T4 sequence (Q96SW2 whole entry): as the sequence (Q96SW2 whole entry) above
T4 sequence (Q16531 whole entry partner): as the sequence (Q16531 whole entry partner) above
Procedure, shortened: (§2)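 hPBMCs (1×10^6 cells/mL) exposed 24 h to compound at 50 nM and 500 nM, lysed, and probed by Western blot. Band grayscale normalized to internal control gives % protein remaining versus DMSO; DC50 from concentration-response fit at half DMSO band intensity.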

[15] = target: T5, IKZF1 (Homo sapiens, UniProt Q13422+Q96SW2); assay: Western-blot assay, substrate protein in hPBMCs; assay type: cell-based; conditions: hPBMC cells, 24 hours, tested at 50 nM and 500 nM, table does not say which
T5 construct: endogenous in cells; host or cells: human PBMCs (Milecell Biotechnologies)
T5 sequence (Q13422 whole entry): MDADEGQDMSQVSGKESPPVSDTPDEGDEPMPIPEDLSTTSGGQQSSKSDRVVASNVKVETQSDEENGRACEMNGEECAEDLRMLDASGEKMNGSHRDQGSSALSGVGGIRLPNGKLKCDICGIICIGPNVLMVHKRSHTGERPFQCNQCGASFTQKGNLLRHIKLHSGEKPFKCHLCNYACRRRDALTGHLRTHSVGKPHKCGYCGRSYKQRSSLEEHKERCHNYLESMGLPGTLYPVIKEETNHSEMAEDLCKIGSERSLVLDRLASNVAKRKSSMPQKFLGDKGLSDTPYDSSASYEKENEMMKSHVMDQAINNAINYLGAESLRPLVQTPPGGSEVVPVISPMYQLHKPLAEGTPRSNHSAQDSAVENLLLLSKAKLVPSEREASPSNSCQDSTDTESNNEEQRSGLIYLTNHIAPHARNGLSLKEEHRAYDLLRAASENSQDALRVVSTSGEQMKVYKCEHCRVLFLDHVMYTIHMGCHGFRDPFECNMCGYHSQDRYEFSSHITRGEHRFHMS
T5 sequence (Q96SW2 whole entry): as the sequence (Q96SW2 whole entry) above
T5 sequence (Q16531 whole entry partner): as the sequence (Q16531 whole entry partner) above
Procedure, shortened: as §2

[16] = target: T6, human Cereblon WT GST-tagged protein (Homo sapiens, UniProt Q96SW2); assay: CRBN-binding affinity, HTRF (CEREBLON BINDING kit); conditions: displacement of Thalidomide-Re reagent, 3 hours at room temperature
T6 construct: purchased CISBIO 64BDCRBNPEH
T6 sequence (Q96SW2 whole entry): as the sequence (Q96SW2 whole entry) above
Procedure, shortened: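 HTRF competition format: compound, GST-tagged wild-type human Cereblon, Thalidomide-Re tracer and GST Eu antibody were combined in PROTAC binding buffer. Binding was derived from emission at 620 nm relative to blank and solvent control wells.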

[17] = target: T7, Wee1 (Homo sapiens, UniProt P30291+Q96SW2); assay: Western-blot assay, substrate protein in hPBMCs; assay type: cell-based; conditions: hPBMC cells, 24 hours, tested at 50 nM and 500 nM, table does not say which
T7 construct: endogenous in cells; host or cells: human PBMCs (Milecell Biotechnologies)
T7 sequence (P30291 whole entry): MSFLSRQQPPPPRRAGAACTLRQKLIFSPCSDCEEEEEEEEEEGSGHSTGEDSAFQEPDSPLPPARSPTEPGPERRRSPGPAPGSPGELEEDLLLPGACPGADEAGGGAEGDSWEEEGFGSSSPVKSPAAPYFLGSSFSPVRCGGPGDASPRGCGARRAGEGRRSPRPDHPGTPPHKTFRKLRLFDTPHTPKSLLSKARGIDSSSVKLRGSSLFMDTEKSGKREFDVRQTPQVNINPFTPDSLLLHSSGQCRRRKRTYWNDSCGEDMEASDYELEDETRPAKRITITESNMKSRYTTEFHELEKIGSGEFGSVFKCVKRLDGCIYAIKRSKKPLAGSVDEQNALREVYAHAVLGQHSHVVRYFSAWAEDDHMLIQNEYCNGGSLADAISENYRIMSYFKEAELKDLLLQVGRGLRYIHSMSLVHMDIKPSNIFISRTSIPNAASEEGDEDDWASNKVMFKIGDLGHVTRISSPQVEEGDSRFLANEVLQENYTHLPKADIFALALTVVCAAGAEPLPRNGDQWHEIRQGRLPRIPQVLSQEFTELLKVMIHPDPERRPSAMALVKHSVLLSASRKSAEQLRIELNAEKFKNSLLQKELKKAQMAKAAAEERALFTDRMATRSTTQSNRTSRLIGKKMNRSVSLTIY
T7 sequence (Q96SW2 whole entry): as the sequence (Q96SW2 whole entry) above
T7 sequence (Q16531 whole entry partner): as the sequence (Q16531 whole entry partner) above
Procedure, shortened: as §1

O=C1CCC(N2Cc3cc(SC4CN(Cc5ccccc5-c5ccc(Cl)cc5)C4)ccc3C2=O)C(=O)N1 (stereo not drawn) [GT-03360, 3-(5-((1-((4′-chloro-[1,1′-biphenyl]-2-yl)methyl)azetidin-3-yl)thio)-1-oxoisoindolin-2-yl)piperidine-2,6-dione]
substrate protein remaining % [1]: A (0%≤ substrate protein remaining % ≤80%) | substrate protein remaining % [2]: A (0%≤ substrate protein remaining % ≤80%) | substrate protein remaining % [3]: A (0%≤ substrate protein remaining % ≤80%) | IC50 [4]: 100 to 500 nM | IC50 [5]: 100 to 500 nM | IC50 [6]: 50 to 100 nM | IC50 [7]: < 1 nM | IC50 [8]: 10 to 50 nM | IC50 [9]: 100 to 500 nM | IC50 [10]: 100 to 500 nM | IC50 [11]: 50 to 100 nM | IC50 [12]: 50 to 100 nM | IC50 [13]: 100 to 500 nM | substrate protein remaining % [14]: A (0%≤ substrate protein remaining % ≤80%) | substrate protein remaining % [15]: A (0%≤ substrate protein remaining % ≤80%) | IC50 [16]: < 500 nM

O=C1CCC(N2Cc3cc(SC4CCN(Cc5ccccc5-c5ccc(Cl)cc5)CC4)ccc3C2=O)C(=O)N1 (stereo not drawn) [GT-03357, 3-(5-((1-((4′-chloro-[1,1′-biphenyl]-2-yl)methyl)piperidin-4-yl)thio)-1-oxoisoindolin-2-yl)piperidine-2,6-dione]
substrate protein remaining % [2]: A (0%≤ substrate protein remaining % ≤80%) | IC50 [7]: 100 to 500 nM | IC50 [11]: 100 to 500 nM | substrate protein remaining % [14]: A (0%≤ substrate protein remaining % ≤80%)

O=C1CCC(N2Cc3cc(SC4CCN(C(=O)c5ccccc5-c5ccc(Cl)cc5)CC4)ccc3C2=O)C(=O)N1 (stereo not drawn) [GT-06182, 3-(5-((1-(4′-chloro-[1,1′-biphenyl]-2-carbonyl)piperidin-4-yl)thio)-1-oxoisoindolin-2-yl)piperidine-2,6-dione]
substrate protein remaining % [2]: A (0%≤ substrate protein remaining % ≤80%) | substrate protein remaining % [3]: A (0%≤ substrate protein remaining % ≤80%) | substrate protein remaining % [17]: A (0%≤ substrate protein remaining % ≤80%) | IC50 [4]: 10 to 50 nM | substrate protein remaining % [14]: A (0%≤ substrate protein remaining % ≤80%) | substrate protein remaining % [15]: A (0%≤ substrate protein remaining % ≤80%) | IC50 [16]: < 500 nM

O=C1CCC(N2Cc3cc(OC4CN(Cc5ccccc5-c5ccc(Cl)cc5)C4)ccc3C2=O)C(=O)N1 (stereo not drawn) [GT-03363, 3-(5-((1-((4′-chloro-[1,1′-biphenyl]-2-yl)methyl)azetidin-3-yl)oxy)-1-oxoisoindolin-2-yl)piperidine-2,6-dione]
substrate protein remaining % [2]: A (0%≤ substrate protein remaining % ≤80%) | substrate protein remaining % [3]: A (0%≤ substrate protein remaining % ≤80%) | substrate protein remaining % [17]: A (0%≤ substrate protein remaining % ≤80%) | IC50 [9]: 100 to 500 nM | IC50 [11]: 100 to 500 nM | substrate protein remaining % [14]: A (0%≤ substrate protein remaining % ≤80%) | substrate protein remaining % [15]: A (0%≤ substrate protein remaining % ≤80%) | IC50 [16]: 500 to 1000 nM

Nc1cccc2c1C(=O)N(C1CCC(=O)NC1=O)C2=O (stereo not drawn) [pomalidomide, reference compound]
IC50 [4]: 500 to 1000 nM | IC50 [5]: > 10000 nM | IC50 [6]: > 10000 nM | IC50 [7]: > 10000 nM | IC50 [8]: > 10000 nM | IC50 [9]: > 10000 nM | IC50 [10]: > 10000 nM | IC50 [11]: > 10000 nM | IC50 [12]: > 10000 nM | IC50 [13]: > 10000 nM
